# Measured values reported in the supplement of paper PMC11451515.
# Test system: SEM cells
# Assay: cell viability relative to DMSO control; higher = less cytotoxic
# Details: 48 h
# Method in brief: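 Library compounds in DMSO were pin-dosed into 1536-well plates (5 μl) holding NOMO1 or SEM (500 cells/well) or P12-Ichikawa (1000 cells/well) leukemia cells, across an 11-point threefold series of 47 μM to 0.79 nM. Each cell line had been adapted for at least four passages in each medium. CellTiter-Glo One luminescence was read after 48 h at 37°C. Viability is the per-plate percentage relative to DMSO wells, with cell-free wells as background.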
# [1] = HPLM + 10% dialyzed FBS, 0.000781 µM
# [2] = HPLM + 10% dialyzed FBS, 0.00234 µM
# [3] = HPLM + 10% dialyzed FBS, 0.00702 µM
# [4] = HPLM + 10% dialyzed FBS, 0.0211 µM
# [5] = HPLM + 10% dialyzed FBS, 0.0632 µM
# [6] = HPLM + 10% dialyzed FBS, 0.19 µM
# [7] = HPLM + 10% dialyzed FBS, 0.569 µM
# [8] = HPLM + 10% dialyzed FBS, 1.71 µM
# [9] = HPLM + 10% dialyzed FBS, 5.12 µM
# [10] = HPLM + 10% dialyzed FBS, 15.4 µM
# [11] = HPLM + 10% dialyzed FBS, 46.1 µM
# [12] = RPMI 5 mM glucose + 10% FBS, 0.000781 µM
# [13] = RPMI 5 mM glucose + 10% FBS, 0.00234 µM
# [14] = RPMI 5 mM glucose + 10% FBS, 0.00702 µM
# [15] = RPMI 5 mM glucose + 10% FBS, 0.0211 µM
# [16] = RPMI 5 mM glucose + 10% FBS, 0.0632 µM
# [17] = RPMI 5 mM glucose + 10% FBS, 0.19 µM
# [18] = RPMI 5 mM glucose + 10% FBS, 0.569 µM
# [19] = RPMI 5 mM glucose + 10% FBS, 1.71 µM
# [20] = RPMI 5 mM glucose + 10% FBS, 5.12 µM
# [21] = RPMI 5 mM glucose + 10% FBS, 15.4 µM
# [22] = RPMI 5 mM glucose + 10% FBS, 46.1 µM
# [23] = RPMI 5 mM glucose + 10% dialyzed FBS, 0.000781 µM
# [24] = RPMI 5 mM glucose + 10% dialyzed FBS, 0.00234 µM
# [25] = RPMI 5 mM glucose + 10% dialyzed FBS, 0.00702 µM
# [26] = RPMI 5 mM glucose + 10% dialyzed FBS, 0.0211 µM
# [27] = RPMI 5 mM glucose + 10% dialyzed FBS, 0.0632 µM
# [28] = RPMI 5 mM glucose + 10% dialyzed FBS, 0.19 µM
# [29] = RPMI 5 mM glucose + 10% dialyzed FBS, 0.569 µM
# [30] = RPMI 5 mM glucose + 10% dialyzed FBS, 1.71 µM
# [31] = RPMI 5 mM glucose + 10% dialyzed FBS, 5.12 µM
# [32] = RPMI 5 mM glucose + 10% dialyzed FBS, 15.4 µM
# [33] = RPMI 5 mM glucose + 10% dialyzed FBS, 46.1 µM
SMILES,cell viability [1],cell viability [2],cell viability [3],cell viability [4],cell viability [5],cell viability [6],cell viability [7],cell viability [8],cell viability [9],cell viability [10],cell viability [11],cell viability [12],cell viability [13],cell viability [14],cell viability [15],cell viability [16],cell viability [17],cell viability [18],cell viability [19],cell viability [20],cell viability [21],cell viability [22],cell viability [23],cell viability [24],cell viability [25],cell viability [26],cell viability [27],cell viability [28],cell viability [29],cell viability [30],cell viability [31],cell viability [32],cell viability [33]
NC(=O)c1c(OCc2c(F)cc(Br)cc2F)nsc1NC(=O)NCCCCN1CCCC1,116%,122%,111%,106%,108%,131%,118%,111%,84.4%,39.2%,35.9%,91.6%,100%,78.7%,83.2%,90.5%,110%,109%,103%,75.4%,22.4%,27.9%,97%,130%,97.6%,116%,97%,129%,123%,114%,107%,37.1%,63.7%
CC1(C)NC(=O)N(c2ccc([N+](=O)[O-])c(C(F)(F)F)c2)C1=O,88.7%,89.7%,82.5%,90.8%,96.9%,44.9%,94%,90.8%,81%,87.4%,84.6%,98.7%,79.5%,92.9%,96.7%,104%,86%,99.6%,94.9%,110%,87.7%,93.9%,99.4%,91%,101%,109%,96.3%,74.5%,104%,106%,106%,78.9%,90%
COC1=CC=CC(=C1/C2=N/CC3=C(N=C(NC4=CC(=C(C=C4)C(O)=O)OC)N=C3)C5=CC=C(Cl)C=C25)F,83.2%,75.2%,93.3%,79.7%,65.7%,26%,25.3%,33.1%,28.9%,25.8%,23.4%,91.7%,84.3%,85.4%,85.4%,68.7%,16.6%,18.1%,16.5%,18.9%,14%,16.4%,75.5%,80.7%,82.2%,88.8%,54%,20.2%,21.1%,24%,23.9%,15.7%,17.8%
CN1C(=O)C(=C/2N(C(=O)N(C3CC3)C(=O)C2=C1/NC4=CC=C(I)C=C4F)C5=CC=CC(=C5)NC(C)=O)\C,,,,,,,,,,,,107%,129%,118%,129%,136%,114%,85.6%,60.1%,7.99%,4.7%,4.99%,,,,,,,,,,,
COC1=CC2=C(C=C1CC3=C(F)C(=CC=C3)Cl)C(=O)\C(=C/N2[C@H](CO)C(C)C)C(O)=O,120%,120%,119%,26.7%,115%,133%,113%,106%,117%,93.7%,23.7%,,,,,,,,,,,,,,,,,,,,,,
CC(C)(OCc1nn(Cc2ccccc2)c2ccccc12)C(=O)O,100%,101%,95.4%,103%,116%,97.4%,108%,100%,97.5%,109%,92.6%,99.4%,95.2%,116%,101%,109%,93.9%,94%,112%,109%,96%,96.5%,94.7%,103%,107%,104%,97.1%,102%,115%,100%,104%,103%,96.4%
CC(=O)O[C@@]12CO[C@@H]1C[C@H](O)[C@]3(C)[C@@H]2[C@H](OC(=O)C4=CC=CC=C4)[C@]5(O)C[C@H](O)/C(=C(/[C@@H](O)C3=O)C5(C)C)C,84.3%,108%,43.5%,110%,106%,111%,116%,107%,90.2%,35.8%,16.3%,70.4%,71.5%,19.1%,71%,64.7%,72.3%,70.1%,65.2%,54.2%,18.1%,8.94%,90.8%,99.6%,43.2%,116%,105%,110%,121%,112%,75.1%,29.9%,13%
COC(=O)[C@@H]1CC2=CC(=O)CC[C@]2(C)[C@@]23O[C@@H]2C[C@@]2(C)[C@@H](CC[C@@]24CCC(=O)O4)[C@H]13,87.9%,88.3%,94.7%,100%,96.1%,121%,113%,115%,115%,102%,111%,105%,108%,113%,98.1%,116%,115%,97.4%,114%,122%,106%,121%,87.5%,93%,112%,101%,113%,107%,119%,116%,122%,130%,125%
COc1cc([C@@H]2c3cc4c(cc3[C@@H](O)C3COC(=O)C32)OCO4)cc(OC)c1O (stereo partly drawn),73.2%,86.7%,86%,21.1%,84.4%,46.9%,22.2%,24.3%,16.6%,11.3%,9.58%,96.4%,83.3%,101%,13.1%,104%,47.6%,19.7%,14.7%,9.69%,4.01%,4.26%,78.6%,70.2%,98.2%,16.1%,82.9%,52.8%,19%,19.5%,11.8%,7.08%,4.88%
CN1C(=O)\C(=C/C2=C1N=C(NC3CCOCC3)N=C2)OC4=C(F)C=C(F)C=C4,99.6%,97.4%,98.4%,102%,99.1%,90.3%,93.3%,92%,78.9%,92.7%,45.6%,112%,100%,125%,112%,105%,112%,121%,105%,97.1%,115%,45.6%,93.3%,106%,94.8%,68.2%,93.8%,96.9%,95.9%,92%,96.2%,88.3%,42.9%
NC(=O)c1ncn([C@@H]2O[C@H](CO)[C@@H](O)[C@H]2O)c1N,,,,,,,,,,,,81.8%,95.1%,89.9%,72.7%,95%,83.1%,91.7%,68%,66.6%,69.7%,18.9%,120%,113%,116%,120%,136%,109%,121%,115%,122%,114%,31.5%
CC(=O)OCC(CCn1cnc2cnc(N)nc21)COC(C)=O,83.4%,65.5%,93.6%,84.8%,97.3%,101%,105%,101%,97.7%,109%,90.8%,85.9%,71.3%,69.2%,97.5%,88.1%,98.3%,98.2%,103%,97.4%,103%,109%,79.3%,79.8%,74.9%,81.2%,96%,95.5%,103%,97%,110%,97.9%,95.6%
Cc1nc(C(=O)NCC(=O)O)c(O)c2ccc(Oc3ccccc3)cc12,109%,109%,115%,112%,116%,108%,99.5%,115%,92.8%,102%,112%,101%,108%,112%,115%,103%,99.4%,95.7%,94.8%,104%,108%,99.2%,113%,112%,123%,116%,119%,112%,113%,113%,103%,115%,122%
CC[C@@H](C)[C@H](NC(=O)[C@H](CC1CCCCC1)NC(=O)c1ccno1)C(=O)N1CCC2(CCc3ccccc32)CC1,41.9%,88.3%,78.3%,86%,65.4%,86.3%,83.7%,87.1%,93.1%,82.6%,70.3%,49.4%,102%,103%,89.2%,67.5%,71.5%,88%,73.7%,79.3%,73.8%,81.3%,55.4%,111%,99.2%,105%,83.6%,99.1%,82.1%,99.1%,95.6%,93.9%,91.9%
OC[C@H]1O[C@H](C[C@@H]1O)N2\C=C(\I)C(=O)NC2=O,86.1%,99.2%,97.3%,93%,99%,113%,117%,88.2%,95.3%,74.7%,69.6%,97.1%,110%,104%,107%,102%,113%,101%,110%,101%,77.8%,66.5%,90.9%,92.5%,92%,99.9%,98.4%,109%,84.3%,64.3%,60%,49.2%,39.4%
O=C(Nc1cccc2c(=O)cc(-c3nnn[nH]3)oc12)c1ccc(OCCCCc2ccccc2)cc1,68.3%,78.5%,85.2%,91.3%,84.6%,91.2%,93%,96%,93.8%,21.4%,49.2%,76.6%,97.5%,87%,86.6%,92.1%,90.7%,91.9%,86.6%,88.4%,17.2%,13.5%,70.8%,90.5%,105%,96.2%,99.6%,92.6%,102%,79.9%,92.8%,19.2%,33.2%
